This passage reports MIC, IC50 and Activity results from ChEMBL document CHEMBL1157845, “Structure-activity relationship of new anti-tuberculosis agents derived from oxazoline and oxazole benzyl esters” (Eur J Med Chem, 2010).

In brackets after ≈: the same amount, converted by molar mass. Activity calls are given as the source filed them. A value given as a limit tells only on which side of the number the result lay.

In the first experiment the test system is Mycobacterium tuberculosis. The experiment in a line: Antimycobacterial activity against Mycobacterium tuberculosis H37Rv ATCC 27294 in GAS medium after 1 week by microplate alamar blue assay. It counts as functional. To be noted: H37Rv ATCC 27294, 168 h. For orientation: The colour change of resazurin is a common sign of viable cells or microbes.
On to `COc1ccc(CNC(=O)c2coc(-c3ccc([N+](=O)[O-])cc3)n2)cc1OC`, for which it took 35.8 µM (≈ 13.7 µg/mL) to inhibit growth (MIC).
Same read-out and setting: the result for `O=C(OCc1ccccc1)c1coc(-c2ccc(Cl)cc2)n1` reads 18.9 µM (≈ 5.93 µg/mL); that for `COc1ccc(C2=N[C@H](C(=O)OCc3ccccc3)CO2)cc1`, 26.1 µM (≈ 8.13 µg/mL).
The same measure, in the same setting: the value for `Nc1ccc(-c2nc(C(=O)OCc3ccccc3)co2)cc1` was 1.98 µM (≈ 0.583 µg/mL); that for `O=C(OCc1ccccc1)[C@@H]1COC(c2ccc([N+](=O)[O-])c(F)c2)=N1` was 30.2 µM (≈ 10.4 µg/mL).

For a further experiment, the system named is Mycobacterium tuberculosis. The experiment in a line: Antimycobacterial activity against Mycobacterium tuberculosis H37Rv ATCC 27294 incubated 10 days under anaerobic condition measured after 24 hrs recovery in air by luciferase based low oxygen recovery assay. It counts as functional.
Details: not given
With `O=C(OCc1ccccc1)c1coc(-c2ccc(Cl)cc2)n1`, the MIC stood at 56.2 µM (≈ 17.6 µg/mL).
The same measure, in the same setting: the result for `Nc1ccc(-c2nc(C(=O)OCc3ccccc3)co2)cc1` reads 68.6 µM (≈ 20.2 µg/mL); that for `O=C(OCc1ccccc1)[C@@H]1COC(c2ccc([N+](=O)[O-])c(F)c2)=N1`, 59 µM (≈ 20.3 µg/mL).

The next experiment deals with Mycobacterium tuberculosis. The experiment in a line: Antimycobacterial activity against Mycobacterium tuberculosis H37Rv ATCC 27294 in GAST medium after 1 week by microplate alamar blue assay. In kind it is functional. To be noted: H37Rv ATCC 27294, 168 h.
As to `COc1ccc(CNC(=O)c2coc(-c3ccc([N+](=O)[O-])cc3)n2)cc1OC`, the MIC is 49.5 µM (≈ 19 µg/mL).
The same measure, in the same setting: the result for `O=C(OCc1ccccc1)c1coc(-c2ccc(Cl)cc2)n1` reads 7.77 µM (≈ 2.44 µg/mL).
`COc1ccc(C2=N[C@H](C(=O)OCc3ccccc3)CO2)cc1` displayed a minimal inhibitory concentration (MIC) of 2.29 µM (≈ 0.713 µg/mL).
Still for that read-out and setting: the result for `Nc1ccc(-c2nc(C(=O)OCc3ccccc3)co2)cc1` reads 3.67 µM (≈ 1.08 µg/mL); that for `O=C(OCc1ccccc1)[C@@H]1COC(c2ccc([N+](=O)[O-])c(F)c2)=N1`, 3.68 µM (≈ 1.27 µg/mL).

For the next experiment, the system named is Vero. The experiment in a line: Cytotoxicity against african green monkey Vero cells by colorimetric assay. To be noted: Chlorocebus sabaeus. It counts as cell-based.
With `COc1ccc(CNC(=O)c2coc(-c3ccc([N+](=O)[O-])cc3)n2)cc1OC`, the half-inhibitory concentration (IC50) is > 128 µM.
As for `O=C(OCc1ccccc1)c1coc(-c2ccc(Cl)cc2)n1`, the half-inhibitory concentration (IC50) is > 128 µM.
The same measure, in the same setting: the value for `COc1ccc(C2=N[C@H](C(=O)OCc3ccccc3)CO2)cc1` was > 128 µM; that for `Nc1ccc(-c2nc(C(=O)OCc3ccccc3)co2)cc1` was > 128 µM.
On the same count and under the same terms, the value for `O=C(OCc1ccccc1)[C@@H]1COC(c2ccc([N+](=O)[O-])c(F)c2)=N1` was > 128 µM.

In another experiment the test system is Mycobacterium tuberculosis. The experiment in a line: Antimycobacterial activity against Mycobacterium tuberculosis Erdman infected in BALB/c mouse assessed as reduction of bacterial load at 200 mg/kg, po qd for 5 days per week administered 60 days after infection measured after 85 days post infection. It counts as functional, organism-based. Also on record: dose 200 mg/kg.
Details: not given
For `COc1ccc(CNC(=O)c2coc(-c3ccc([N+](=O)[O-])cc3)n2)cc1OC`, the result was inactive.
As to `O=C(OCc1ccccc1)c1coc(-c2ccc(Cl)cc2)n1`, the outcome was inactive.
With `COc1ccc(C2=N[C@H](C(=O)OCc3ccccc3)CO2)cc1`, the result was inactive.
The same measure, in the same setting: the value for `Nc1ccc(-c2nc(C(=O)OCc3ccccc3)co2)cc1` was “inactive”.
The same measure, in the same setting: the result for `O=C(OCc1ccccc1)[C@@H]1COC(c2ccc([N+](=O)[O-])c(F)c2)=N1` reads “inactive”.

By MIC is commonly meant the smallest concentration in the dilution series that meets the test's criterion for growth inhibition. What is called IC50 is the concentration that gives 50% inhibition.
